Results taken from patent publication US20050171084A1, “Methods of treatment with lxr modulators” (priority 2002, published 2005).

Columns and labels:
[1] = tested on: NTW8 mouse microglial cells; assay: Secretion of pro-inflammatory mediators from LPS/IFN-γ stimulated microglia; format: cell-based; details: LPS/INF-γ stimulated microglia cells, 24 hrs
Method: NTW8 mouse microglial cells were plated into a 96 well plate at a density of 2×10^5 cells/well in DMEM supplemented with 10% FCS, 2 mM glutamine, 10 ng/ml basic fibroblast growth factor (R&D Systems) and N-2 (Gibco). Next day, cell were stimulated for 24 hrs in DMEM containing 10 ng/ml LPS (Sigma) and 20 U/ml IFN-γ (Gibco) in the presence of increasing concentrations of the test compound solubilised in DMSO. Media was removed after 24 hrs and analysed by ELISA for secreted IL-6, TNF-α (R&D systems) and PGE2 (Amersham) or via a Greiss assay for nitric oxide (NO) production. Cell viability was assessed by an MTT assay (Promega). All data are means and SEM pooled from two independent experiments. Results are expressed as a percentage of the LPS\INF-γ stimulated control cells treated with DMSO alone.

[2] = tested on: Cortical neurons; assay: Neurite outgrowth in cortical neurons; format: cell-based, rat; details: CR neurons, 24 hours, standard error of triplicate wells in parentheses
Method: Cortical neurons: Cortex from gestational day 18-20 rat embryos were collected in HBSS on ice. Cells were dissociated as described for hippocampal neurons. Cells were pelted (200 g, 5 mins and resuspended in medium as described for hippocampal cells. Cells were plated at 6000 cells/well and cultured for 24 hours.
(§1) The test compound was solubilised in DMSO and added to culture medium at time of cell plating at a dilution of 1:1000. Vehicle only (1:1000) was added to culture medium of untreated controls. Cells were fixed with 4% paraformaldehyde for 1 hour on ice, washed with PBS and stained using Coomassie. Assays were quantified using a KS300 image analysis system (Imaging Associates, UK). For each cell measured, the length from the edge of the cell to the end of the longest neurite was measured for 100 cells/well for each treatment in triplicate. All data are means and SEM pooled from three independent experiments. Results are expressed as a percentage of the length of neurites of cells treated with vehicle alone.

[3] = tested on: Hippocampal neurons; assay: Neurite outgrowth in hippocampal neurons; format: cell-based, rat; details: HC neurons, 48 hours, SEM in parentheses
Method: Hippocampal neurons: The hippocampi of gestational day 18 rat embryos were dissected out, incubated in trypsin (0.08%, 30 min at 37° C.) and dissociated mechanically (16). Hippocampal cells were resuspended in neurobasal medium supplemented with B27, anti-oxidants, 1 mM glutamine, 25 μM glutamate, 1 mM pyruvate. For outgrowth assays, cells were plated at a density of 3000 cells/well into 96 well dishes that had previously been coated with poly-D-lysine followed by 10% FCS and cultured for 48 hours.
as §1

O=C(O)Cc1cccc(OCCCN(Cc2cccc(C(F)(F)F)c2Cl)CC(c2ccccc2)c2ccccc2)c1 [Example 1, 2-(3-{3-[[2-Chloro-3-(trifluoromethyl)benzyl](2,2-diphenylethyl)amino]propoxy}-phenyl)acetic Acid]
secretion of IL-6 ([1]; ELISA (FIG. 2)): inhibited
secretion of PGE2 ([1]; ELISA (FIG. 2)): inhibited
secretion of TNF-α ([1]; ELISA (FIG. 2)): inhibited
NO production ([1]; Greiss assay (FIG. 2)): inhibited
length of longest neurite, percentage of cells treated with vehicle alone ([2]; 0.3 μm test compound): 105 (1.79) %
length of longest neurite, percentage of cells treated with vehicle alone ([2]; 1.0 μm test compound): 110 (2.4) %
length of longest neurite, percentage of cells treated with vehicle alone ([2]; 3.0 μm test compound): 123.6 (6.6) %
length of longest neurite, percentage of cells treated with vehicle alone ([2]; 10.0 μm test compound): 126.23 (2.5) %
length of longest neurite, percentage of cells treated with vehicle alone ([3]; 0.3 μm test compound): 109 (6.25) %
length of longest neurite, percentage of cells treated with vehicle alone ([3]; 1.0 μm test compound): 113 (5.05) %
length of longest neurite, percentage of cells treated with vehicle alone ([3]; 3.0 μm test compound): 120 (7.75) %
length of longest neurite, percentage of cells treated with vehicle alone ([3]; 10.0 μm test compound): 147 (11.8) %
